{"source": "patent US6395737B1", "about": "“Malonic acid derivatives, processes for their preparation, for their use and pharmaceutical compositions containing them” (Aventis Pharma Deutschland GmbH, priority 1999, dated 2002)", "key": {"[1]": {"biological_target": "T1, factor Xa (Homo sapiens, UniProt P00742)", "T1 sequence (P00742 235-488 limits assumed)": "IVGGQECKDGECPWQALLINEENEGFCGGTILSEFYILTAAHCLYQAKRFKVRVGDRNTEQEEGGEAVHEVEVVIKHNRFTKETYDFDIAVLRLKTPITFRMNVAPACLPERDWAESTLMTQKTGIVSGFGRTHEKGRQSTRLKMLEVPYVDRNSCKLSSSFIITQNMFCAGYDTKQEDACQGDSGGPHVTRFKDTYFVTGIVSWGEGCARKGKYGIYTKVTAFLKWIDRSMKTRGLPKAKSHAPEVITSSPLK", "T1 sequence (P00742 41-179 partner limits assumed)": "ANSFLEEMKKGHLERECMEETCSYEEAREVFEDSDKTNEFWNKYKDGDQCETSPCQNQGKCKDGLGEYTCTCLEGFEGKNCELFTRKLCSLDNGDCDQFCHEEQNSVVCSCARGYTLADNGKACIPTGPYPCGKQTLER", "test": "In vitro Factor Xa assay (Test 1a), chromogenic substrate S-2765", "type": "biochemical", "parameters": "purchased Enzyme Research Laboratories, Inc; South Bend, Ind", "details": "Factor Xa inhibitory activity; Ki from IC50 corrected for substrate competition; 0.5 nM enzyme, 140 μM S-2765, 25° C.", "from_the_text": "The ability of a compound of formula I to inhibit factor Xa, thrombin, plasmin, elastase and trypsin may be assessed by determining the concentration of compound of formula I that inhibits enzyme activity by 50% (IC50). Purified enzymes are used in chromogenic assays. To determine the inhibition constant, the IC50 value is corrected for competition with substrate using the formula:\nKi=IC50×(1/{1+((substrate concentration)/substrate Km)})\nwhere Km is the Michaelis-Menten-constant (Y.-C. Chen and W.H. Prusoff, Biochem. Pharmacol. 22: […] (1973), which is incorporated herein by reference).\nTBS-PEG buffer (50 mM Tris-Cl, pH 7.8, 200 mM NaCl, 0.05% (w/v) PEG-8000, 0.02% (w/v) NaN3) is used for this assay. The IC50 is determined by combining in appropriate wells of a Costar half-area microtiter plate 25 μl human factor Xa (Enzyme Research Laboratories, Inc.; South Bend, Ind.) in TBS-PEG; 40 μl 10% (v/v) DMSO in TBS-PEG (uninhibited control) or various concentrations of the compound to be tested diluted in 10% (v/v) DMSO in TBS-PEG; and substrate S-2765 (N-benzyloxycarbonyl-D-Arg-Gly-L-Arg-p-nitroanilide; Kabi Pharmacia, Inc.; Franklin Ohio) in TBS-PEG.\nThe assays are performed by pre-incubating the compound of formula I plus enzyme for 10 min, then the assay is initiated by adding substrate to obtain a final volume of 100 μl. The initial velocity of chromogenic substrate hydrolysis is measured by the change in absorbance at 405 nm using a Bio-tek Instruments kinetic plate reader (Ceres UV900HDi) at 25° C. during the linear portion of the time course (usually 1.5 min after addition of substrate). The concentration of inhibitor that causes a 50% decrease in the rate of substrate hydrolysis is predicted by linear regression after plotting the relative rates of hydrolysis (compared to the uninhibited control) versus the log of the compound of formula I concentration. The enzyme concentration is 0.5 nM and substrate concentration is 140 μM."}, "[2]": {"biological_target": "T1, factor Xa", "details": "cited from earlier work"}, "[3]": {"test_system": "thrombin and factor Xa", "details": "rate of inactivation, thrombin relative to factor Xa; cited from earlier work"}}, "note": "Where two headings read alike, the source gives them in different places.", "data": [{"compound": "CC(C)(C)OC(=O)N1CCN(CCNC(=O)[C@@H](NC(=O)C(Cc2ccc(C(=N)N)cc2)C(=O)NCc2ccccc2)C2CCCCC2)CC1.O=C(O)C(F)(F)F", "note": "(stereo partly drawn)", "values": [{"measurement": "melting point", "result": "125 to 128", "unit": "°C"}]}, {"compound": "N=C(N)c1ccc(CC(C(=O)NCc2ccccc2)C(=O)N[C@H](C(=O)NCCN2CCNCC2)C2CCCCC2)cc1.O=C(O)C(F)(F)F", "note": "(stereo partly drawn)", "values": [{"measurement": "melting point", "result": "196 °C (dec.)"}]}, {"compound": "CN(C)C(=O)C(Cc1ccc(C(=N)N)cc1)C(=O)N[C@H](C(=O)NCC1CCC(C(=N)N)CC1)C1CCCCC1", "note": "(stereo partly drawn) [Example 116, 2-(4-Carbamimidoyl-benzyl)-N-{(S)-[(4-carbamimidoyl-cyclohexylmethyl)-carbamoyl]-cyclohexyl-methyl}-N′,N′-dimethyl-malonamide]", "values": [{"measurement": "Ki", "setting": "[1]", "result": 2, "unit": "nM"}]}, {"compound": "CN(C)C(=N)c1ccc(CC(C(=O)NC(C(=O)NCC2CCC(C(=N)N(C)C)CC2)C2CCCCC2)C(=O)N(C)C)cc1", "note": "[Example 120, N-(S)-(Cyclohexyl-{[4-(N,N-dimethyl-carbamimidoyl)-cyclohexylmethyl]-carbamoyl}-methyl)-2-[4-(N,N-dimethyl-carbamimidoyl)-benzyl]-N′,N′-dimethyl-malonamide]", "values": [{"measurement": "Ki", "setting": "[1]", "result": 6, "unit": "nM"}]}, {"compound": "TAP: tick anticoagulant peptide, isolated from the tick Ornithodoros moubata, contains 60 amino acids; inhibitor of factor Xa (YNRLCIKPRDWIDECDSNEGGERAYFRNGKGGCDSFWICPEDHTGADYYSSYRDCFNACI; UniProt P17726 1-60, looked up)", "values": [{"measurement": "Ki", "setting": "[2]", "result": "~0.5", "unit": "nM"}]}, {"compound": "heparin", "values": [{"measurement": "thrombin inactivated faster than factor Xa", "setting": "[3]", "result": "approximately 100 times"}]}]}
